Source: US9662322B2 (TEVA PHARMACEUTICAL INDUSTRIES, LTD., priority 2014, dated 2017)

Experiments:
[1] = system: subjects with relapsing remitting multiple sclerosis (RRMS); test: ALLEGRO (MS-LAQ-301) Phase III trial: relapse endpoints; format: in vivo, human
From the text: The primary endpoint of the study was the number of confirmed relapses during the double-blind treatment period, which corresponds to the annualized relapse rate (ARR—number of relapses divided by total exposure of all patients). Secondary endpoints included disability as measured by Expanded Disability Status Scale (EDSS) changes confirmed at 3 months, and cumulative number of gadolinium enhancing (GdE) and new/enlarging T2 MRI lesions. […] Eligible subjects were equally randomized 1:1 into one of the following treatment arms: • 1. […] 21, 2007 (see, page 10, line 5 to page 11, line 3). • 2. Matching placebo for laquinimod arm: one capsule is administered once daily. The primary endpoint was the number of confirmed relapses during the double-blind study period. A relapse was defined as the appearance of one or more new neurological abnormalities or the reappearance of one or more previously observed neurological abnormalities lasting for at least 48 hours and after an improved neurological state for at least 30 days. An event was counted as a relapse if the subject's symptoms were accompanied by observed objective neurological changes consistent with at least one of the following: an increase of at least 0.5 in the EDSS score; an increase of one grade in two or more of the seven functional systems; or an increase of two grades in one functional system. Standardized treatment of relapses was intravenous methylprednisolone 1 g/day for up to five consecutive days based on the treating neurologist's decision. The number of confirmed relapses (and Annualized relapse rate) during the double blind study period. The analysis of the total number of confirmed relapses during the study period is based on baseline adjusted Quasi-Likelihood (over-dispersed) Poisson Regression. Using the Poisson regression with the treatment group as a covariate, the ARR of each group was calculated for the intent-to-treat (ITT) cohort as the total number of confirmed relapses for all patients in each group divided by the total patient years in that group. In addition to the treatment group, the following covariates were included: baseline EDSS score, log of the (prior 2-year number of relapses +1) and country or geographical region.

[2] = system: subjects with relapsing remitting multiple sclerosis (RRMS); test: ALLEGRO Phase III trial: patient-reported fatigue and health status (MFIS, SF-36, EQ5D); format: in vivo, human; settings: over 24 months
Experimental: The following assessments were performed at specified time points: • 1. Vital signs were measured at each study visit. • 2. A physical examination is performed at months −1 (screening), 0 (baseline) 1, 3, 6, 12, 18 and 24 (termination/early discontinuation core study). In case of the 6 months extended study, additional examination was performed at month 30 (termination/early discontinuation of extended study). • 3. The following safety clinical laboratory tests were performed: • a. Complete blood count (CBC) with differential—at all scheduled visits. A reticulocyte count was added to the CBC at months 0 (baseline) and 24/30 (termination/early discontinuation). • b. […] Adverse Events (AEs) are monitored throughout the study. • 9. Concomitant medications are monitored throughout the study. • 10. […] MS functional Composite (MSFC) was assessed at months −1 (screening) (three practices for training purposes only), at month 0 (baseline), 6, 12, 18 and 24 (termination/early discontinuation). […] Subject-reported fatigue was assessed by the Modified Fatigue Impact Scale (MFIS) at months 0, 6, 12, 18, and 24 (termination/early discontinuation). […] The general health status was assessed by the EuroQoL (EQ5D) questionnaire at month 0 (baseline) and month 24 (termination/early discontinuation of the study). […]

[3] = post-hoc, vs placebo, listed as laquinimod

CCN(C(=O)c1c(O)c2c(Cl)cccc2n(C)c1=O)c1ccccc1 [Laquinimod, laquinimod]
Relapses requiring hospitalization (annualized rate) ([1]; post-hoc): 0.071 | ARR 1st year, Effect ([1]; post-hoc, vs placebo): 24% reduction | ARR by median relapse duration: >34 days, Effect ([1]; post-hoc, vs placebo): 1.3% reduction | ARR by median relapse duration: ≦34 days, Effect ([1]; post-hoc, vs placebo): 37% reduction | ARR for dropouts, Effect ([1]; post-hoc, vs placebo): 26% reduction | ARR, Full recovery, Effect ([1]; post-hoc, vs placebo): 13% reduction | ARR, No recovery, Effect ([1]; post-hoc, vs placebo): 24% reduction | Relapses requiring IV steroids, Effect ([1]; post-hoc, vs placebo): 27% reduction | Relapses requiring hospitalization, Effect ([1]; post-hoc, vs placebo): 38% reduction | Unconfirmed relapses, Effect ([1]; post-hoc, vs placebo): 17% reduction | Relapses requiring IV steroids, Effect [1, 3]: 27 % reduction | Relapses requiring hospitalization, Effect [1, 3]: 38 % reduction | ARR, No recovery ([1]; post-hoc, recovery refers to EDSS before and after attack): 0.06 | Annualized rate of relapses requiring hospitalization and/or IV steroids, Effect ([1]; vs placebo): 27% reduction | Relapse-free during study, increase in odds to be relapse free ([1]; vs placebo): 55% increase odds to | Relapse-free during study, increase in odds to be relapse free ([1]; vs placebo, listed as laquinimod): 55% | SF-36 physical component summary (PCS) course [2]: remained stable
